Reference: patent publication US5075440A, “Novel pyrido[2,3-f](1,4)thiazepines and pyrido[3,2-b](1,5)benzothiazepines” (Ortho Pharmaceutical Corporation, priority 1990, dated 1991)
Several values for one entry are separate records, joined by “and”; a condition that tells them apart may be missing. Equal values may be shown once.

How the values were obtained:
[1] = system: trachealis muscle tissue; assay: Inhibition of calcium dependent smooth muscle contraction, trachea (P#176 Trach); design: species or system dog; details: 50 mM KCl contraction
Procedure: (§1) The test for inhibition of calcium dependent smooth muscle contraction is determined according to the following procedure:
(§2) The trachea and the aorta from dogs sacrificed by excess KCl injection are stored overnight at 4° C. in oxygenated Krebs-Henseleit buffer. Tracheal rings, one cartilage segment wide (5-10 mm), are cut starting from the bronchial end. Rings of aorta tissue of the same width are also prepared. After cutting the cartilage, the trachealis muscle tissue and the aorta tissue are suspended in oxygenated Krebs-Henseleit buffer at 37° C. in a 25 ml tissue bath. After a 60-minute equilibration period, the tissues are challenged with 10 μM carbachol. After 5 minutes, the tissues are rinsed and allowed to rest 50 minutes. The tissues are then challenged with 50 mM KCl and, after 30 minutes, the contractions are quantitated. The tissues are then rinsed and reequilibrated for 50 minutes. Test compounds are then added for 10 minutes, and the tissue is rechallenged with 50 mM KCl. After 30 minutes, the contraction is recorded and used to determine the % inhibition of control.
(§3) The percent inhibition of smooth muscle contraction is calculated from response data before and after drug treatment. [formula]

[2] = system: aorta tissue; assay: Inhibition of calcium dependent smooth muscle contraction, aorta (P#176 Aorta); design: species or system dog; details: 50 mM KCl contraction
Procedure: as §1, §2, §3

[3] = Canis lupus familiaris, read-out: P#176 Trach % INHB/μM
[4] = Canis lupus familiaris, 0.01 μM, read-out: P#176 Aorta % INHB/μM
[5] = Canis lupus familiaris, 0.1 μM, read-out: P#176 Aorta % INHB/μM
[6] = Canis lupus familiaris, 1.0 μM, read-out: P#176 Aorta % INHB/μM
[7] = Canis lupus familiaris, 2.0 μM, read-out: P#176 Trach % INHB/μM
[8] = Canis lupus familiaris, read-out: P#176 Aorta % INHB/μM
[9] = Canis lupus familiaris, 0.1 μM, read-out: P#176 Trach % INHB/μM

Structure (SMILES)	inhibition at 0.3 µM [1, 3]	inhibition at 0.01 µM [2, 4]	inhibition at 0.1 µM [2, 5]	inhibition at 1 µM [2, 6]	inhibition at 2 µM [1, 7]	further results
CCOC(=O)C1=C(C)NC2=C(C1c1cccc(Cl)c1Cl)S(=O)(=O)CCNC2 (single isomer, unassigned) [2,3-dichloro / H / ethyl, Ethyl 9-(2,3-dichlorophenyl)-1,1-dioxo-2,3,4,5,6,9-hexahydro-7-methylpyrido[2,3-f][1,4]-thiazepine-8-carboxylate]	24%	–	–	–	–	inhibition at 0.03 µM [1, 3]: 25%
CCOC(=O)C1=C(C)NC2=C(C1c1cccc(Cl)c1Cl)S(=O)(=O)CCNC2 (single isomer, unassigned) [2,3-dichloro / H / ethyl] [Ethyl 9-(2,3-dichlorophenyl)-1,1-dioxo-2,3,4,5,6,9-hexahydro-7-methylpyrido[2,3-f][1,4]-thiazepine-8-carboxylate]	–	–	–	–	–	P#176 Aorta % INHB/μM ([2]; 0.01 μM): 0% and 14%; P#176 Aorta % INHB/μM ([2]; 0.1 μM): 0% and 67%; P#176 Aorta % INHB/μM ([2]; 1.0 μM): 69% and 97%; P#176 Trach % INHB/μM ([1]; 0.1 μM): 2% and 47%; P#176 Trach % INHB/μM ([1]; 2.0 μM): 54% and 96%
CCOC(=O)C1=C(C)NC2=C(C1c1cccc(Cl)c1Cl)S(=O)(=O)c1ccccc1N(C=O)C2 (centres unmarked) [2,3-dichloro / CHO / ethyl, Ethyl 4-(2,3-dichlorophenyl)-5,5-dioxo-10-formyl-2-methyl-1,4,10,11-tetrahydropyrido[3,2-b][1,5]-benzothiazepine-3-carboxylate]	35%	33%	50%	74%	73%	inhibition at 0.01 µM ([1]; Canis lupus familiaris, 0.01 μM, read-out: P#176 Trach % INHB/μM): 38%
CC(=O)OCCOC(=O)C1=C(C)NC2=C(C1c1cccc(Cl)c1Cl)S(=O)(=O)CCNC2 (centres unmarked) [2,3-dichloro / H / 2-acetoxyethyl, 2-Acetoxyethyl 9-(2,3-Dichlorophenyl) -1,1-dioxo-2,3,4,5,6,9-hexahydro-7-methylpyrido [2,3-f][1,4]thiazepine-8-carboxylate]	–	–	18%	72%	–	inhibition at 0.3 µM ([2]; Canis lupus familiaris, 0.3 μM, read-out: P#176 Aorta % INHB/μM): 62%
CC1=C(C(=O)OCCO)C(c2cccc(Cl)c2Cl)C2=C(CNCCS2(=O)=O)N1 (centres unmarked) [2,3-dichloro / H / 2-hydroxyethyl]	–	–	–	0%	–	inhibition at 10 µM [2, 8]: 56%
CC(=O)OCCOC(=O)C1=C(C)NC2=C(C1c1cccc(Cl)c1Cl)S(=O)(=O)CCN(C)C2 (centres unmarked) [2,3-dichloro / Me / 2-acetoxyethyl, 2-Acetoxyethyl 9-(2,3-dichlorophenyl)-4,7-dimethyl-1,1-dioxo-2,3,4,5,6,9-hexahydropyrido[2,3-f][1,4]-thiazepine-8-carboxylate]	–	0%	26%	89%	–	–
CC1=C(C(=O)OCCO)C(c2cccc(Cl)c2Cl)C2=C(CN(C)CCS2(=O)=O)N1 (centres unmarked) [2,3-dichloro / Me / 2-hydroxyethyl]	–	–	14%	62%	–	inhibition at 3 µM ([2]; Canis lupus familiaris, 3.0 μM, read-out: P#176 Aorta % INHB/μM): 77%; inhibition at 10 µM [2, 8]: 95%
CCOC(=O)C1=C(C)NC2=C(C1c1cccc(Cl)c1Cl)S(=O)(=O)CCN(C(=O)CN)C2 (centres unmarked) [2,3-dichloro / NH2 CH2 CO / ethyl]	6%	–	–	20%	36%	–
CCCCCCCN1CCS(=O)(=O)C2=C(C1)NC(C)=C(C(=O)OCC)C2c1cccc(Cl)c1Cl (centres unmarked) [2,3-dichloro / hept / ethyl]	–	–	4%	–	27%	–
CCOC(=O)C1=C(C)NC2=C(C1c1ccccc1[N+](=O)[O-])S(=O)(=O)CCNC2 (centres unmarked) [2-nitro / H / ethyl]	45%	27%	47%	77%	75%	inhibition at 0.1 µM [1, 9]: 12%
CCOC(=O)C1=C(C)NC2=C(C1c1cccc([N+](=O)[O-])c1)S(=O)(=O)CCN(CC)C2 (centres unmarked) [3-nitro / Et / ethyl, Ethyl 1,1-dioxo-4-ethyl-2,3,4,5,6,9-hexahydro-7-methyl-9-(3-nitrophenyl)-pyrido[2,3-f][1,4]-thiazepine-8-carboxylate]	92%	5%	73%	–	–	inhibition at 0.03 µM [1, 3]: 50%; inhibition at 0.1 µM [1, 9]: 73%
